Data taken from patent US20190224261A1, “LICORICE EXTRACT COMPOSITIONS AND METHOD OF USE” (Adbiotech, Co. Ltd, priority 2018, published 2019).

What was measured:
[1] = DPPH radical scavenging activity
Experimental: The 2,2-diphenyl-1-picrylhydrazyl (DPPH) radical scavenging activity was evaluated as described (Gupta D et al., BMC Complement Altem Med, 2011; 11:13. doi: 10.1186/1472-6882-11-13) with modifications. In this assay, 0.2 mL of sample at different concentrations (1-1000 μg/mL) was added to 1.8 mL of DPPH solution (0.11 mM) in 80% ethanol. The mixture was then incubated for 30 minutes and at room temperature in the dark. The absorbance at 517 nm was then measured with ascorbic acid and butylhydroxytoluene (BHT) as reference antioxidants. A 0.2 mL of solvent extract dilution added to 1.8 mL of DPPH solution (0.11 mM) in 80% ethanol serve as the control. Two independent experiments were performed in triplicate. The percentage inhibition was calculated relative to the control using the equation, inhibition of DPPH radical (%)=(1−(Abssample/Abscontrol))×100.

STAT-3 phosphorylation = experiment: Interleukin-6 induced STAT-3 phosphorylation; format: cell-based; details: IL-6 induced STAT-3 phosphorylation; 100 uM

With `O=C1O[C@H]([C@@H](O)CO)C(O)=C1O` [Ascorbic acid, ascorbic acid] the “DPPH radical scavenging activity, %” value ([1]; 300 μM) was 37.60 ± 0.47%.
With `O=c1c(-c2ccc(O)cc2)coc2cc(O)cc(O)c12` [Genestain] the “% Inhibition” value (STAT-3 phosphorylation) was 96.25%.
For `O=C(NC(Cc1cc(=O)[nH]c2ccccc12)C(=O)O)c1ccc(Cl)cc1` (stereo not drawn) [Rebamipde, rebamipide], the “DPPH radical scavenging activity, %” value ([1]; 100 μg/mL) was 0.93 ± 0.83%.
